According to US20260014133A1, “SUBSTITUTED 3-(l-OXOISOINDOLIN-2-YL)PIPERIDINE-2,6-DIONE/2-(2,6-DIOXOPIPERIDIN-3-YL)ISOINDOLINE-l,3-DIONE ANALOGS AS MODULATORS OF CEREBLON PROTEIN” (St. Jude's Chidren's Research Hospital, Inc., priority 2022, published 2026):

Target: 6×His-CRBN-DDB1 protein (Homo sapiens (Human), UniProt Q96SW2)
Test: CRBN Fluorescence Polarization Assay
Format: binding
Conditions: competitive fluorescence polarization; Cy5-O-Len probe 30 nM, 6×His-CRBN-DDB1 200 nM; 1 hour at room temperature; mean of three independent determinations; read-out: CRBN FP (IC50)
Description: In this competitive fluorescent polarization assay Cy5 conjugated lenalidomide analog (Cy5-O-Len)^13 was used as a fluorescent probe. 6×His-CRBN-DDB1 protein (200 nM) and Cy5-O-Len probe (30 nM) were combined in 20 mM HEPES pH 7, 150 mM NaCl, 0.005% Tween-20 assay buffer. 20 μL of this assay cocktail was dispensed into wells of Corning 3821 black 384-well plates. Compounds were transferred to the assay plate from a dose-response plate using a Pintool on a Biomek FXP Laboratory Automation Workstation (Beckman Coulter). The plates were incubated in the dark for 1 hour at room temperature and then read on an Envision plate reader (PerkinElmer, Massachusetts, USA). IC50 values were determined using a proprietary software RISE (Robust Investigation of Screening Experiments), developed in house on the Pipeline Pilot platform (Biovia, v. 17.2.0). Data represent the mean of three independent determinations.
Cereblon binding activity was determined as described herein above, and the results are provided below in Table 2 for representative disclosed compounds. Compound number (“Cmpd No.”) refers to the compound number (and associated compound information such as structure, name, etc.) as provided in Table 1. In Table 2 below: cereblon binding IC50 values are categorized as follows: “A” represents IC50 value<1 μM, “B” represents IC50 value between 1 and 10 μM, and “C” represents IC50 value>10 μM.

Sequence of 6×His-CRBN-DDB1 protein (Q96SW2 whole entry): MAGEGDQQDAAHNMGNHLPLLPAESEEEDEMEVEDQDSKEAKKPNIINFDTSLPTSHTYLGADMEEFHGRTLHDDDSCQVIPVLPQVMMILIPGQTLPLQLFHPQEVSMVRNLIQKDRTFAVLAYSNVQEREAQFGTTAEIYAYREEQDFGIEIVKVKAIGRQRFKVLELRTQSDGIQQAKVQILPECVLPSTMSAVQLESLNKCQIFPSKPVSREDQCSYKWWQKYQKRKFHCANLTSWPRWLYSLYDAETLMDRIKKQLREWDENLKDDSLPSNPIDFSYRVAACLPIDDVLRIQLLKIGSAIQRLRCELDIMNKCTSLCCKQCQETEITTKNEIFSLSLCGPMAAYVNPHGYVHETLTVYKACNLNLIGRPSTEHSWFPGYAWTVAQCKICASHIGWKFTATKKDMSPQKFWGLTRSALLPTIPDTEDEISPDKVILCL
Sequence of 6×His-CRBN-DDB1 protein (Q16531 whole entry partner): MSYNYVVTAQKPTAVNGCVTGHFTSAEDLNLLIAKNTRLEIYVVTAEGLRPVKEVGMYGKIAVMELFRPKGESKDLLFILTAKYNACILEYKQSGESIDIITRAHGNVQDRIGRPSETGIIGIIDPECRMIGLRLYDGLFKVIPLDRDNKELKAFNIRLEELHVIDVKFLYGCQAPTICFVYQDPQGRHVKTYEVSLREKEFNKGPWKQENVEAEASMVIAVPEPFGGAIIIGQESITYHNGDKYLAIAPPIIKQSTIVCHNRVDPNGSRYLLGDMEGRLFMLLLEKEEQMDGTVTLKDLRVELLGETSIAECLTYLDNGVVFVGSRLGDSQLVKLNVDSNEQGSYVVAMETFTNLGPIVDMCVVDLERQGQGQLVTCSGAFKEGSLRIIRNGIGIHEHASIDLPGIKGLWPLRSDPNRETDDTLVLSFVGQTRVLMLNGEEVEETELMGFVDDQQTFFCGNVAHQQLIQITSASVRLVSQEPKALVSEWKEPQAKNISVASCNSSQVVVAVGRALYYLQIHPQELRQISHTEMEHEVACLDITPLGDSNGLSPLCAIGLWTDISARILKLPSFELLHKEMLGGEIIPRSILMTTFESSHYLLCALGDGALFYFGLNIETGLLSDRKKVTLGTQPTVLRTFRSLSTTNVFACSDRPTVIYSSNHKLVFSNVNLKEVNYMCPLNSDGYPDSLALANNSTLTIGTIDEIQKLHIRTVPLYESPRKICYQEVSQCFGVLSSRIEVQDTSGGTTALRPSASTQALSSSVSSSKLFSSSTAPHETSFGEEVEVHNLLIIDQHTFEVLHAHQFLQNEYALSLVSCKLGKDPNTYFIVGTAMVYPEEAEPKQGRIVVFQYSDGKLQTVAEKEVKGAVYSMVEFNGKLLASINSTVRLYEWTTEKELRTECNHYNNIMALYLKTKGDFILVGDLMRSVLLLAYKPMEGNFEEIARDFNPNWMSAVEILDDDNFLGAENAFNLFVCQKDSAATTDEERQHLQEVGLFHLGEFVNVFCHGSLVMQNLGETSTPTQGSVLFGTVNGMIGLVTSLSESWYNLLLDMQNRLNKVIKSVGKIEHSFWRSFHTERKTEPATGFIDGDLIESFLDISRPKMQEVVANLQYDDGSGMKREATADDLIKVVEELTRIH

| Compound | IC50 |
| --- | --- |
| Cc1cccc(C(=O)Nc2ccc3c(c2)CN(C2CCC(=O)NC2=O)C3=O)c1 (centres unmarked) [Compound 3, N-(2-(2,6-dioxopiperidin-3-yl)-1-oxoisoindolin-5-yl)-3-methylbenzamide] | 1000 to 10000 nM |
| O=C1CCC(N2Cc3cc(NC(=O)COCc4ccccc4)ccc3C2=O)C(=O)N1 (centres unmarked) [Compound 65, 2-(benzyloxy)-N-(2-(2,6-dioxopiperidin-3-yl)-1-oxolsoindolin-5-yl)acetamide] | < 1000 nM |
| Cc1cc(F)cc(C(=O)Nc2ccc3c(c2)CN(C2CCC(=O)NC2=O)C3=O)c1 (centres unmarked) [Compound 55] | 1000 to 10000 nM |
| Cc1cccc(C(=O)Nc2ccc3c(c2)CN(C2CCC(=O)NC2=O)C3=O)c1Cl (centres unmarked) [Compound 57, 2-chloro-N-(2-(2,6-dioxopiperidin-3-yl)-1-oxoisoindolin-5-yl)-3-methylbenzamide] | 1000 to 10000 nM |
| Cc1ccc(C(=O)Nc2ccc3c(c2)CN(C2CCC(=O)NC2=O)C3=O)cn1 (centres unmarked) [Compound 20, N-(2-(2,6-dioxopiperidin-3-yl)-1-oxoisoindolin-5-yl)-6-methylnicotinamide] | 1000 to 10000 nM |
| O=C1CCC(N2Cc3cc(Nc4nc5ccccc5s4)ccc3C2=O)C(=O)N1 (centres unmarked) [Compound 63, 3-(5-(benzo[d]thiazol-2-ylamino)-1-oxoisoindolin-2-yl)piperidine-2,6-dione] | 1000 to 10000 nM |
| N#Cc1ccc(C(=O)Nc2ccc3c(c2)CN(C2CCC(=O)NC2=O)C3=O)cc1 (centres unmarked) [Compound 52, 4-cyano-N-(2-(2,6-dioxopiperidin-3-yl)-1-oxoisoindolin-5-yl)benzamide] | 1000 to 10000 nM |
| O=C1CCC(N2Cc3cc(NC(=O)c4ccc(OC(F)(F)F)cc4)ccc3C2=O)C(=O)N1 (centres unmarked) [Compound 43, N-(2-(2,6-dioxopiperidin-3-yl)-1-oxoisoindolin-5-yl)-4-(trifluoromethoxy)benzamide] | 1000 to 10000 nM |
| O=C1CCC(N2Cc3cc(NC(=O)c4ccc(C(F)(F)F)cc4)ccc3C2=O)C(=O)N1 (centres unmarked) [Compound 15, N-(2-(2,6-dioxopiperidin-3-yl)-1-oxoisoindolin-5-yl)-4-(trifluoromethyl)benzamide] | < 1000 nM |
| CS(=O)(=O)Nc1cccc(C(=O)Nc2ccc3c(c2)CN(C2CCC(=O)NC2=O)C3=O)c1 (centres unmarked) [Compound 47, N-(2-(2,6-dioxopiperidin-3-yl)-1-oxoisoindolin-5-yl)-3-(methylsulfonamido)benzamide] | 1000 to 10000 nM |
| O=C1CCC(N2Cc3cc(NC(=O)c4cccc(OC(F)(F)F)c4)ccc3C2=O)C(=O)N1 (centres unmarked) [Compound 44, N-(2-(2,6-dioxopiperidin-3-yl)-1-oxoisoindolin-5-yl)-3-(trifluoromethoxy)benzamide] | 1000 to 10000 nM |
| O=C1CCC(N2Cc3cc(NC(=O)c4ccc(F)cc4)ccc3C2=O)C(=O)N1 (centres unmarked) [Compound 5, N-(2-(2,6-dioxopiperidin-3-yl)-1-oxoisoindolin-5-yl)-4-fluorobenzamide] | 1000 to 10000 nM |
| O=C1CCC(N2Cc3cc(NC(=O)c4[nH]c5ccccc5c4Cl)ccc3C2=O)C(=O)N1 (centres unmarked) [Compound 26, 3-chloro-N-(2-(2,6-dioxopiperidin-3-yl)-1-oxoisoindolin-5-yl)-1H-indole-2-carboxamide] | > 10000 nM |
| COc1cccc(C(=O)Nc2ccc3c(c2)CN(C2CCC(=O)NC2=O)C3=O)c1 (centres unmarked) [Compound 11, N-(2-(2,6-dioxopiperidin-3-yl)-1-oxoisoindolin-5-yl)-3-methoxybenzamide] | < 1000 nM |
| N#Cc1cccc(C(=O)Nc2ccc3c(c2)CN(C2CCC(=O)NC2=O)C3=O)c1 (centres unmarked) [Compound 9, 3-cyano-N-(2-(2,6-dioxopiperidin-3-yl)-1-oxoisoindolin-5-yl)benzamide] | < 1000 nM |
| O=C1CCC(N2Cc3cc(NC(=O)c4ccncc4)ccc3C2=O)C(=O)N1 (centres unmarked) [Compound 7, N-(2-(2,6-dioxopiperidin-3-yl)-1-oxoisoindolin-5-yl)isonicotinamide] | 1000 to 10000 nM |

The remaining lines, values ahead:

| IC50 | Compound |
| --- | --- |
| 1000 to 10000 nM | O=C1CCC(N2Cc3cc(NC(=O)c4ccc(Cl)cc4)ccc3C2=O)C(=O)N1 (centres unmarked) [Compound 14, 4-chloro-N-(2-(2,6-dioxopiperidin-3-yl)-1-oxoisoindolin-5-yl)benzamide] |
| 1000 to 10000 nM | CS(=O)(=O)Nc1ccc(C(=O)Nc2ccc3c(c2)CN(C2CCC(=O)NC2=O)C3=O)cc1 (centres unmarked) [Compound 46, N-(2-(2,6-dioxopiperidin-3-yl)-1-oxoisoindolin-5-yl)-4-(methylsulfonamido)benzamide] |
| 1000 to 10000 nM | Cc1cccc(C(=O)Nc2ccc3c(c2)CN(C2CCC(=O)NC2=O)C3=O)n1 (centres unmarked) [Compound 35, N-(2-(2,6-dioxopiperidin-3-yl)-1-oxoisoindolin-5-yl)-6-methylpicolinamide] |
| 1000 to 10000 nM | COCCOc1cccc(C(=O)Nc2ccc3c(c2)CN(C2CCC(=O)NC2=O)C3=O)c1 (centres unmarked) [Compound 53, N-(2-(2,6-dioxopiperidin-3-yl)-1-oxoisoindolin-5-yl)-3-(2-methoxyethoxy)benzamide] |
| 1000 to 10000 nM | CN(C(=O)c1ccccc1)c1ccc2c(c1)CN(C1CCC(=O)NC1=O)C2=O (centres unmarked) [Compound 18, N-(2-(2,6-dioxopiperidin-3-yl)-1-oxoisoindolin-5-yl)-N-methylbenzamide] |
| 1000 to 10000 nM | O=C1CCC(N2Cc3cc(NC(=O)c4cccnc4)ccc3C2=O)C(=O)N1 (centres unmarked) [Compound 6, N-(2-(2,6-dioxopiperidin-3-yl)-1-oxoisoindolin-5-yl)nicotinamide] |
| 1000 to 10000 nM | O=C1CCC(N2Cc3cc(NC(=O)c4ccccc4OC(F)(F)F)ccc3C2=O)C(=O)N1 (centres unmarked) [Compound 45, N-(2-(2,6-dioxopiperidin-3-yl)-1-oxoisoindolin-5-yl)-2-(trifluoromethoxy)benzamide] |
| 1000 to 10000 nM | CC(C)c1ccccc1C(=O)Nc1ccc2c(c1)CN(C1CCC(=O)NC1=O)C2=O (centres unmarked) [Compound 42, N-(2-(2,6-dioxopiperidin-3-yl)-1-oxoisoindolin-5-yl)-2-isopropylbenzamide] |
| 1000 to 10000 nM | CN(C)c1cccc(C(=O)Nc2ccc3c(c2)CN(C2CCC(=O)NC2=O)C3=O)c1 (centres unmarked) [Compound 60, 3-(dimethylamino)-N-(2-(2,6-dioxopiperidin-3-yl)-1-oxoisoindolin-5-yl)benzamide] |
| < 1000 nM | O=C1CCC(N2Cc3cc(Nc4noc5cc(F)ccc45)ccc3C2=O)C(=O)N1 (centres unmarked) [Compound 62, 3-(5-((6-fluorobenzo[d]isoxazol-3-yl)amino)-1-oxoisoindolin-2-yl)piperidine-2,6-dione] |
| < 1000 nM | Cc1ccc(C(=O)Nc2ccc3c(c2)CN(C2CCC(=O)NC2=O)C3=O)nc1 (centres unmarked) [Compound 36, N-(2-(2,6-dioxopiperidin-3-yl)-1-oxoisoindolin-5-yl)-5-methylpicolinamide] |
| 1000 to 10000 nM | O=C1CCC(N2Cc3cc(NC(=O)c4cccc(F)c4)ccc3C2=O)C(=O)N1 (centres unmarked) [Compound 8, N-(2-(2,6-dioxopiperidin-3-yl)-1-oxoisoindolin-5-yl)-3-fluorobenzamide] |
| 1000 to 10000 nM | O=C1CCC(N2Cc3cc(NC(=O)c4ccccc4F)ccc3C2=O)C(=O)N1 (centres unmarked) [Compound 37, N-(2-(2,6-dioxopiperidin-3-yl)-1-oxoisoindolin-5-yl)-2-fluorobenzamide] |
| 1000 to 10000 nM | Cc1cc(C(=O)Nc2ccc3c(c2)CN(C2CCC(=O)NC2=O)C3=O)ccc1Br (centres unmarked) [Compound 54, 4-bromo-N-(2-(2,6-dioxopiperidin-3-yl)-1-oxoisoindolin-5-yl)-3-methylbenzamide] |
| 1000 to 10000 nM | O=C1CCC(N2Cc3cc(NC(=O)c4cccc(C5CC5)c4)ccc3C2=O)C(=O)N1 (centres unmarked) [Compound 50, 3-cyclopropyl-N-(2-(2,6-dioxopiperidin-3-yl)-1-oxoisoindolin-5-yl)benzamide] |
| 1000 to 10000 nM | Cc1cc(C(=O)Nc2ccc3c(c2)CN(C2CCC(=O)NC2=O)C3=O)ccc1F (centres unmarked) [Compound 56, N-(2-(2,6-dioxopiperidin-3-yl)-1-oxoisoindolin-5-yl)-4-fluoro-3-methylbenzamide] |
